For assay [1], the system named is Plasmodium falciparum. The experiment in a line: Antiplasmodial activity against erythrocytic stage chloroquine sensitive Plasmodium falciparum 3D7 assessed as parasitic growth inhibition measured after 3 days by HRP2-ELISA assay. Type of assay: functional, organism-based. The conditions noted are these: 3D7, 72 h. In general terms: In an ELISA, binding on a coated surface is turned into a signal by an enzyme label.

The test system of assay [2] is Plasmodium falciparum. The assay can be described thus: Antiplasmodial activity against erythrocytic stage chloroquine resistant Plasmodium falciparum dD2 assessed as parasitic growth inhibition measured after 3 days by HRP2-ELISA assay. The conditions noted are these: dD2, 72 h. Type of assay: functional, organism-based.

The text below walks through data of ChEMBL document CHEMBL5370559, “Plasmodium-Resistant Indole Diterpenoid Biosynthesis Gene Cluster Derived from Aspergillus oryzae Was Activated by Exogenous P450 Gene Ast B” (J Nat Prod, 2023).

Each structure is given as a SMILES string.

For `CC1=CC[C@@H](O)[C@@]23CC=C(C(C)C)[C@H](c4c[nH]c5ccccc45)[C@@H]2[C@H](C)CC[C@@]13C`, the IC50 in assay [1] worked out at 20 µM.
With `CC(C)(O)[C@@H]1CC[C@]2(C)[C@H](CC[C@@]3(C)[C@H]2CC[C@H]2Cc4c([nH]c5ccccc45)[C@@]23C)O1` [PASPALINE], the IC50 in assay [1] was 2.2 µM; in assay [2] it was over 200 µM.
The corresponding values for `C=CC(C)(C)c1cccc2[nH]c3c(c12)C[C@@H]1CC[C@H]2C4=CC(=O)[C@@H](C(C)(C)O)O[C@H]4CC[C@]2(C)[C@@]31C` are 0.84 µM and 41 µM.
For `CC(C)C1=C(c2c[nH]c3ccccc23)[C@@H]2[C@H](C)CC[C@@]3(C)[C@H](C)CC[C@@H](O)[C@@]23CC1`, in that order: 2.8 µM and over 200 µM.
The corresponding values for `C=CC(C)(C)c1ccc2[nH]c3c(c2c1)C[C@@H]1CC[C@H]2C4=CC(=O)[C@@H](C(C)(C)O)O[C@H]4CC[C@]2(C)[C@@]31C` are 1.3 µM and 96 µM.
In the case of `CC(C)(O)[C@H]1O[C@@]2(O)CC[C@@]3(C)[C@@H](CC[C@H]4Cc5c([nH]c6ccccc56)[C@@]43C)C2=CC1=O`, the IC50 in assay [1] was determined as 1.1 µM; in assay [2], 153 µM.
In the case of `C[C@H](CO)C1=C(c2c[nH]c3ccccc23)[C@@H]2[C@H](C)C[C@@H](O)[C@@]3(C)[C@H](C)CC[C@@H](O)[C@@]23CC1`, the IC50 in assay [1] was determined as 26 µM.
In the case of `Cc1cc2[nH]c3ccccc3c2c2c1CC[C@@]13[C@H](O)CC[C@@H](C)[C@]1(C)[C@H](O)C[C@@H](C)[C@@H]23`, in assay [1], the concentration for half-maximal inhibition (IC50) was found to be 49 µM.
As for `C[C@@H]1CC[C@H]2[C@@H](C)C(=O)O[C@@H]3O[C@@]4(C)CC[C@@H]1[C@]32OO4` [ARTEMISININ], the IC50 in assay [1] came to 0.013 µM; in assay [2], 12 µM.
For the molecule `CC(C)C1=CC[C@]23[C@@H]([C@H](C)CC[C@@]2(C)[C@H](C)CC[C@H]3O)[C@H]1c1c[nH]c2ccccc12`, the IC50 in assay [1] came out at 31 µM.
Turning to `C=CC(C)(C)c1cccc2[nH]c3c(c12)C[C@@H]1CC[C@@]2(O)C4=CC(=O)[C@@H]5O[C@@]4(CC[C@]2(C)[C@@]31C)OC5(C)C` [AFLATREME], in assay [1], the IC50 was over 200 µM.
On the same count and under the same terms, then `C[C@@H]1CC[C@@]2(C)[C@H](C)CC[C@@H](O)[C@]23CC[C@@H](C(C)(C)O)[C@H](c2c[nH]c4ccccc24)[C@H]13`, with over 200 µM.
With `CC(C)(O)[C@H]1O[C@H]2CC[C@@]3(C)[C@@H](CC[C@H]4Cc5c([nH]c6ccccc56)[C@@]43C)C2=CC1=O` [DEHYDROXYPAXILLINE], the IC50 was 0.9 µM in assay [1] and 69 µM in assay [2].
As for `CC(C)C1=C(c2c[nH]c3ccccc23)[C@@H]2[C@H](C)C[C@@H](O)[C@@]3(C)[C@H](C)CC[C@@H](O)[C@@]23CC1`, the IC50 in assay [1] was determined as 52 µM.
Consider `C=CC(C)(C)c1cccc2[nH]c3c(c12)C[C@@H]1CC(=O)[C@@]2(O)C4=CC(=O)[C@@H](C(C)(C)O)O[C@]4(O)CC[C@]2(C)[C@@]31C`, for which, in assay [1], the IC50 turned out to be 57 µM.
Take `CC(C)=CCC[C@]1(C)[C@@H](O)CC[C@@]2(C)[C@H]1CC[C@H]1Cc3c([nH]c4ccccc34)[C@@]12C` [EMINDOLE SB]: the IC50 in assay [1] was 2.9 µM; in assay [2], 34 µM.

The IC50 is the point on the concentration scale where inhibition reaches its midpoint.
